In general, EC50 refers to the concentration needed to bring the measured effect to its halfway point.

Common to all, as to assay type: functional
For assay [1], the target named is T1, Retinoic acid receptor RXR-gamma (Homo sapiens, UniProt P48443).
T1 sequence (P48443 whole entry): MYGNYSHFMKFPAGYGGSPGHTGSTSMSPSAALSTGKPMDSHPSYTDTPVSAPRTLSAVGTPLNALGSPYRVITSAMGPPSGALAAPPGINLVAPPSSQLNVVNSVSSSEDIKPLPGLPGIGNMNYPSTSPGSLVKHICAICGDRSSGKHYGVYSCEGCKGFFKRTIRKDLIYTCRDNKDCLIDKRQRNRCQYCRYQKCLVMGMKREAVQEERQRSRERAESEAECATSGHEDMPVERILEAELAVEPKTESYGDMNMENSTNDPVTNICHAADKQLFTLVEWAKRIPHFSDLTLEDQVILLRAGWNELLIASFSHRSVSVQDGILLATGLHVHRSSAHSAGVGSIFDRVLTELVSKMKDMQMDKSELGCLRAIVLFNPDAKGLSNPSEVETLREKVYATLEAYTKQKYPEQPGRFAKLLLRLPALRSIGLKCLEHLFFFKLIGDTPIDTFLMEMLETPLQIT
The assay is described as follows: Agonist activity for retinoic acid receptor RXR gamma in transcriptional activation assay.

Assay [2] deals with T2, Retinoic acid receptor RXR-alpha (Homo sapiens, UniProt P19793).
T2 sequence (P19793 whole entry): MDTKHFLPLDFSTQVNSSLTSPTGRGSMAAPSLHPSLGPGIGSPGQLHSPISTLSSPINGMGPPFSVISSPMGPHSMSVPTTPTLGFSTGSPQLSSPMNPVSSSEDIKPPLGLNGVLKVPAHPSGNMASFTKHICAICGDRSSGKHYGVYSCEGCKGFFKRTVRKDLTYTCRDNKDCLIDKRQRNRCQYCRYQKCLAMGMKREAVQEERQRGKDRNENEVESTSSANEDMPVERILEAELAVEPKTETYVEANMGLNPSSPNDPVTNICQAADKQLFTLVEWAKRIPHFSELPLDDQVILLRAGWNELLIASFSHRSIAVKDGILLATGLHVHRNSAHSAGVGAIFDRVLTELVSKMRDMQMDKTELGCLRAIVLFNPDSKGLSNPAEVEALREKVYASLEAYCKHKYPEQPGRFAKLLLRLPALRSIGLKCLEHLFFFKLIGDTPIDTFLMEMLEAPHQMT
Description: Agonist activity for retinoic acid receptor RXR alpha in transcriptional activation assay.

Assay [3] has as its target T3, Retinoic acid receptor beta (Homo sapiens, UniProt P10826).
T3 sequence (P10826 whole entry): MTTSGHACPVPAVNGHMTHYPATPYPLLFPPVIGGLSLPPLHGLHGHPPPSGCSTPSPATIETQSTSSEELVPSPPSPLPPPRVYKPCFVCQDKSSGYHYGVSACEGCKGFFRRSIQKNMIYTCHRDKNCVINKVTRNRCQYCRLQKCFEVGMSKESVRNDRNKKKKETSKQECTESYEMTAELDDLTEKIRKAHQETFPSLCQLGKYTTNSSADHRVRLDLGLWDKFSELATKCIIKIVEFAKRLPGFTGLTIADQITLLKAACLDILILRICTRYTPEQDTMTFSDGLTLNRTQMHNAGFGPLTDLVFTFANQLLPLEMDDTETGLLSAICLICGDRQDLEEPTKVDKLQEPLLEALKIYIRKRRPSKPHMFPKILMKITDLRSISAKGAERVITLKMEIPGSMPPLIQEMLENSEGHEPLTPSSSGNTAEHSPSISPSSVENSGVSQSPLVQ
Description: Agonist activity for retinoic acid receptor RAR beta in transcriptional activation assay.

Assay [4] has as its target T4, Retinoic acid receptor alpha (Homo sapiens, UniProt P10276).
T4 sequence (P10276 whole entry): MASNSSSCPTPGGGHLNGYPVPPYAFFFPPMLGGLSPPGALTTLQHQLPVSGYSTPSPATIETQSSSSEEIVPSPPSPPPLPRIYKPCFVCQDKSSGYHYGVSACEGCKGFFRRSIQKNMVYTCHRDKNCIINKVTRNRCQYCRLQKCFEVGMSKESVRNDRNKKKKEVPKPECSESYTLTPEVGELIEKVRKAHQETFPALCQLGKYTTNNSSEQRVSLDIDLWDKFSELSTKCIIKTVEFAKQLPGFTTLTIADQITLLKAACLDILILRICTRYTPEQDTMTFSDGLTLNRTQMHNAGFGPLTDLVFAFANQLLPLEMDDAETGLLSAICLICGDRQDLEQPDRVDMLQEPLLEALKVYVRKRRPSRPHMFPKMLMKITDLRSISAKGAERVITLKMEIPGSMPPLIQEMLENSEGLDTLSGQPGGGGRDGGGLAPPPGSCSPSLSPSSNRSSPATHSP
Description: Agonist activity for retinoic acid receptor RAR alpha in transcriptional activation assay; […].

Assay [5] deals with T5, Retinoic acid receptor RXR-beta (Homo sapiens, UniProt P28702).
T5 sequence (P28702 whole entry): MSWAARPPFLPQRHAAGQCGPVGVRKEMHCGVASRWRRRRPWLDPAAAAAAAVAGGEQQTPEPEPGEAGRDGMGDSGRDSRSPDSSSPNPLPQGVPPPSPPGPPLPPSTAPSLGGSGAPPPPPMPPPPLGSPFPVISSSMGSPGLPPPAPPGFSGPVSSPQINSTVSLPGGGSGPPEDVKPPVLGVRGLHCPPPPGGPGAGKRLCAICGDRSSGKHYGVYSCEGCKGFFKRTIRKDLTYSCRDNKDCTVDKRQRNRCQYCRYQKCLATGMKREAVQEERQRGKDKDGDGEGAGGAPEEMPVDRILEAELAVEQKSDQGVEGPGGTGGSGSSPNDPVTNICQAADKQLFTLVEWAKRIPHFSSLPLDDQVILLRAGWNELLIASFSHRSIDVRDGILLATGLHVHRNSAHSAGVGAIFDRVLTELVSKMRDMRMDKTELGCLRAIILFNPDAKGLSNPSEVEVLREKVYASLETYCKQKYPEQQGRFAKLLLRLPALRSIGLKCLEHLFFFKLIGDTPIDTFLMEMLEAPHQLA
Description: Agonist activity for retinoic acid receptor RXR beta in transcriptional activation assay.

Assay [6] deals with T6, Retinoic acid receptor gamma (Homo sapiens, UniProt P13631).
T6 sequence (P13631 whole entry): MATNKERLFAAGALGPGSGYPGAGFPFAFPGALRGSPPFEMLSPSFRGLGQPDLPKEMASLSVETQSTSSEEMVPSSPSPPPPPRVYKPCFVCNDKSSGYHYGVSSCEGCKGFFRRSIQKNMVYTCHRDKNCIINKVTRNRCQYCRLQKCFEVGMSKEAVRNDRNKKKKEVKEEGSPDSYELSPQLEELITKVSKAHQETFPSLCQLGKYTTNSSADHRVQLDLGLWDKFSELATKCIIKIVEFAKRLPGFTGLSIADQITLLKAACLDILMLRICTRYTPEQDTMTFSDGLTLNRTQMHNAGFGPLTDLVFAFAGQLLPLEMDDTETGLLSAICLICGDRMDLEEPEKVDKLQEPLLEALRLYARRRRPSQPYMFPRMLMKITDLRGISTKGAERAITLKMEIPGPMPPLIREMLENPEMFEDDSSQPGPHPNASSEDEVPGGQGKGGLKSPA
Description: Agonist activity for retinoic acid receptor RAR gamma in transcriptional activation assay.

Assay [7] concerns the target T3, Retinoic acid receptor beta. The assay is described as follows: Agonist activity for retinoic acid receptor RAR beta in transcriptional activation assay; […].
Assay [8] has as its target T6, Retinoic acid receptor gamma. The assay is described as follows: Agonist activity for retinoic acid receptor RAR gamma in transcriptional activation assay; […].
Assay [9] has as its target T4, Retinoic acid receptor alpha. Description: Agonist activity for retinoic acid receptor RAR alpha in transcriptional activation assay.

Consider `C/C(=C\c1ccc(C(=O)O)cc1)c1ccc2c(c1)C(C)(C)CCC2(C)C`, for which the EC50 result in assay [1] is on record as “Not Active”.
`C/C(=C\c1ncc(C(=O)O)s1)c1cc2c(cc1C)C(C)(C)CCC2(C)C`: the EC50 is 4 nM in [2]; 220 nM in [3]; 4 nM in assay [1] (read-out: EC50); “Not Active” in assay [4]; 3 nM in assay [5]; 200 nM in assay [6].
`C/C(=C\c1nc(C(=O)O)c[nH]1)c1cc2c(cc1C)C(C)(C)CCC2(C)C`: the EC50 in [2] is 89 nM; in assay [7], “Not Active”; in assay [1] (read-out: EC50) it was 170 nM; in assay [4] it was “Not Active”; in assay [5], 130 nM; in assay [8] it was “Not Active”.
As to `C/C(=C\c1ncc(C(=O)O)n1S(=O)(=O)N(C)C)c1cc2c(cc1C)C(C)(C)CCC2(C)C`, the EC50 in assay [2] was 59 nM; in assay [7], “Not Active”; in [1] (read-out: EC50), 86 nM; in [4], “Not Active”; in assay [5] it was 180 nM; in assay [8] it was “Not Active”.
For the compound `C/C(=C\c1ccc(C(=O)O)s1)c1cc2c(cc1C)C(C)(C)CCC2(C)C`, the EC50 in assay [2] is 35 nM; in assay [3], 56 nM; in [1] (read-out: EC50), 33 nM; in [4], “Not Active”; in [5] it was 23 nM; in assay [6] it was 131 nM.
With `C/C(=C\c1ccc(C(=O)O)s1)c1ccc2c(c1)C(C)(C)CCC2(C)C`, the EC50 in [2] turned out to be 2400 nM; in assay [3], 29 nM; in [1] (read-out: EC50), 2300 nM; in assay [9] it was 690 nM; in [5] it was 2300 nM; in [6], 15 nM.
In the case of `C/C(=C\c1ncc(C(=O)O)s1)c1ccc2c(c1)C(C)(C)CCC2(C)C`, the 50% effective concentration (EC50) came out at 210 nM in [2]; 46 nM in [3]; 160 nM in assay [1] (read-out: EC50); 210 nM in assay [9]; 210 nM in assay [5]; 34 nM in assay [6].
For `C/C(=C\c1cc(C(=O)O)cs1)c1cc2c(cc1C)C(C)(C)CCC2(C)C`, the EC50 was 215 nM in assay [2]; 1990 nM in assay [3]; 105 nM in assay [1] (read-out: EC50); “Not Active” in assay [4]; 180 nM in assay [5]; 979 nM in assay [6].

The record behind these values is ChEMBL document CHEMBL1128079, “Differential RXR & RAR activity of stilbene retinoid analogs bearing thiazole and imidazole carboxylic acids” (Bioorg Med Chem Lett, 1995).
